Data: patent US20130172324A1, “METHOD FOR TREATING CARDIOVASCULAR DISEASES USING RHO KINASE INHIBITOR COMPOUNDS” (priority 2008, published 2013)
Entries after “also recorded” stand apart in the source; their conditions may differ.

What was measured:
rat trachea rings = test: Tracheal relaxation assay (carbachol precontracted rings); conditions: for Percentage of carbachol-induced contraction at 1 μM compound, Avg % / Percentage of carbachol-induced contraction at 10 μM compound, Avg %: 1 μM carbachol; for IC50: Rattus norvegicus, read-out: IC50 Avg; for Trachael Ring Contraction, %: average percentage of carbachol-induced rat tracheal ring contraction at 1 μM of test compound;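 for all read-outs here: isometric tension of rat tracheal rings in Krebs buffer with 1 µM indomethacin, compounds added cumulatively at 30 min intervals, basal tension subtracted, fit to Hill equation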
Protocol: The effects of compounds to induce relaxation of pre-contracted rat trachealis were determined. […] Trachea were excised, cleaned of connective tissue and cut into cylindrical segments of 2-3 mm length. Two stainless steel wires were guided through the lumen of the tracheal ring. One wire was fixed in the tissue bath and the other was connected to a force transducer via surgical silk. […] Indomethacin (1 μM), a cyclooxygenase inhibitor, was added to the Krebs buffer and was present throughout the experiments. Contractile tensions were measured using an isometric force transducer (Grass Instruments) and signals were analyzed using specialized software (Chart v5.5, ADInstruments). The preparations were allowed to equilibrate at a resting tension of 0.3 to 0.5 gm prior to two challenges with 60 mM KCl to assess tissue viability. After washing, tissues were treated with 1 μM carbachol for 10 to 15 minutes to induce a contractile response. Test Compounds were added cumulatively to the bath every 30 minutes and reductions in tension were recorded. Basal tension was subtracted from all values and data were reported as a percentage of the maximal carbachol-induced contraction. Data were fit to the Hill equation using GraphPad Prism v5 software.

[1] = system: rat tracheal rings pretreated with vehicle or IL-1β and TNF-α; test: Effect of inflammatory cytokines on tracheal relaxation; conditions: FIG. 7
Protocol: Male Sprague-Dawley rats weighing 301-325 gm were sacrificed by asphyxiation in a CO2 chamber. Trachea were excised, cleaned of connective tissue and cut into cylindrical segments of 2-3 mm length. Tissues were treated for 18 hours at 37° C. in F12 media with penicillin-streptomycin and 0.1% BSA alone or with 10 ng/ml IL-1β and 100 ng/ml TNF-α. Tissues were then washed free of cytokines with Krebs buffer. Contractile tensions were measured using an isometric force transducer (Grass Instruments) as described for Example 3 and signals were analyzed using specialized software (Chart v5.5, ADInstruments). Tissues were treated with 300 nM carbachol for 10 to 15 minutes to induce a contractile response. Test Compounds were added cumulatively to the bath every 30 minutes and reductions in tension were recorded. Basal tension was subtracted from all values and data were reported as a percentage of the maximal carbachol-induced contraction. Data were fit to the Hill equation using GraphPad Prism v5 software.

[2] = system: ova-sensitized, ova-challenged mice; test: Bronchodilator assay in ovalbumin-sensitized mice (Penh, methacholine); format: in vivo, mouse; conditions: for log10AUC (penh): bronchodilator dosing paradigm
Protocol: Male BALB/c mice were ordered from Charles River Laboratories (Raleigh, N.C.). The animals were approximately 19 to 21 grams at time of receipt. Upon arrival, the animals were randomized into groups of five males per cage and assigned to a dosing group. Animals were quarantined for 7 days under test conditions. They were observed daily for general health status and ability to adapt to the water bottles.
Animals were sensitized on day 0 and 14 of study by an intraperitoneal injection with 20 μg of ovalbumin (ova) and 2.0 mg aluminum hydroxide (alum) which initiates the development of a specific T-helper (Th) cells type 2 resulting in asthmatic animals. One group of animals received an injection of saline to use as non-asthmatic control animals. All animals were challenged with aerosolized 1% ova once daily for 25 minutes on days 28, 29, and 30 (Zosky, et al. Respiratory Research. 2004; 5:15). Aerosol challenge consists of using an Aerogen Aeroneb nebulizer and controller with a particle size of 4-6 μm mass median aerodynamic diameter (MMAD) with a distribution of 400 μl per minute. This aerosol challenge is necessary to target the Th2-driven allergic inflammation in the lower airways.
The test compounds and the control vehicle were administered to animals on the day of airway hyperreactivity evaluation 30 minutes to 1 hour before the evaluation to determine the bronchodilator effects of the compounds according to the bronchodilator dosing paradigm (FIG. 8). Compounds were administered p.o. (orally), i.p. (intraperitoneally) at 15 μMol/kg unless otherwise noted (Table 6). Alternatively, compounds were administered i.t. (intratracheally) at varying doses as shown (FIG. 9). On day 32 of the experiment, airway hyperreactivity was evaluated by placing conscious, unrestrained animals in a whole body plethysmometer (Buxco Wilmington, N.C.) and exposing them to escalating doses of nebulized methacholine, a known bronchial constrictor which acts through the muscarinic receptors of the lungs, (doses: 0.325-50 mg/ml). Exposure to the methacholine doses consisted of a 3 minute period during which a nebulizer was aerosolizing the methacholine and an additional 3 minute period following the cessation of nebulization. Over this 6 minute period, the plethysmometer monitors and generates numerical values for all parameters of the breath pattern. Enhanced pause (Penh), a unitless index of airway hyperreactivity, is derived from the expiratory side of the respiratory waveform measured via the plethysmograph and is used as an indirect measure of airway resistance and hyperreactivity. […] Following the methacholine dose response, all animals were anesthetized, bled and euthanized.
Within each experiment, a mouse was given a single compound and exposed to increasing doses of methacholine [0 (baseline), 0.375, 0.75, 1.5, 3, 6, 12, 25, 50 mg/ml]. The Penh value at each of the dose levels of methacholine represents the 6-minute average response. Change from baseline (CFB) in Penh was calculated at each methacholine dose and the area under the curve (AUC) for these CFB values was calculated using the trapezoidal rule. This same approach was applied for each mouse across multiple experiments.
For statistical analyses, a linear mixed-effects model where the response was the log 10 transformed value of AUC described above was used. Data from equal experimental conditions across experiments performed on different days were pooled for statistical analysis and data reporting. The various compounds were compared adjusting for the log 10-transformed baseline value of Penh and the chamber (1 of 10) of the plethysmometer each mouse was contained in during an experiment. A random intercept for each experiment was assumed to account for possible similarities of the results obtained from a given experiment (i.e., as a “blocking effect”). […] Computations were performed using PROC MIXED (SAS Version 9.1). […]

[3] = system: ova-sensitized, ova-challenged mice; test: In vivo anti-inflammatory assay in ovalbumin-sensitized mice (BALF eosinophils and cytokines); set-up: species or system mouse
Excerpt: A mouse model of asthma via ovalbumin sensitization was created as described in Example 23. The anti-inflammatory dosing paradigm (FIG. 10) was utilized to evaluate the anti-inflammatory effects of experimental compounds. The anti-inflammatory dosing paradigm consists of dosing the animals once a day starting on day 27 and finishing on either day 30 or 31 (1 hr prior to the aerosolized ovalbumin challenges on days 28 to 30) but not on day 32 when hyperreactivity evaluation occurs.
Bronchoalveolar lavage fluid (BALF) was collected by infusing 3.0 ml of saline with 10% fetal calf serum into the lungs via the trachea and then withdrawing the fluid. The total amount of cells/ml of BALF fluid was determined via manual cell count on hemocytometer. The BALF was centrifuged, supernatant removed and analyzed for cytokine concentrations as described below, and cell pellet reconstituted in 500 μL of fluid. Cytospin slides were prepared from the cell pellet using 100 μL of fluid and spinning samples for 5 minutes at 5000 rpms in a cytospin centrifuge. Following Hema3 stain, relative percentages of individual leukocytes were determined on a 200 cell count for each sample. The final concentration of individual leukocyte cell types per ml of BALF was determined by multiplication of the relative percentage of individual leukocytes with the total amount of cells/ml of BALF fluid.
The concentrations of cytokines in the BALF samples were determined using commercially available Bio-plex kits (Bio-Rad) for the detection of mouse IL-5, IL-13, and Eotaxin. The analysis of cytokine levels was measured using the Bio-Plex 200 (Bio-Rad) system according to the manufacturer's instructions.

LPS-challenged mice = test: LPS-induced neutrophilia and cytokine production assay; format: in vivo, mouse; conditions: for IL-1β levels in BALF: intratracheal administration, LPS-challenged mice, FIG. 18
Protocol: Male BALB/c mice, approximately 19 to 21 grams, were ordered from Charles River Laboratories (Raleigh, N.C.). All animals were challenged with aerosolized LPS (10 μg/ml) for 25 minutes on study day 0. LPS aerosol was generated using an Aerogen Aeroneb nebulizer and controller providing a flow of 400 μl/min and a particle size of 2-4 μm MMAD. Rolipram was administered i.p at 20 mg/kg. […] Four hours following LPS challenge, BALF was collected using a total of 3 ml of 0.9% sodium chloride containing 10% fetal calf serum. Total cell counts were determined using the Coulter Counter. For differential evaluations, BALF was centrifuged and cytospin slides prepared and stained with Hema3 stain. Manual leukocyte counts were then completed on 200 cells. The final concentration of individual leukocyte cell types per ml of BALF was determined by multiplication of the relative percentage of individual leukocytes with the total amount of cells/ml of BALF fluid. The concentration of IL-1β in the BALF samples was determined using commercially available Bio-plex kits (Bio-Rad). The analysis of cytokine levels was measured using the Bio-Plex 200 (Bio-Rad) system according to the manufacturer's instructions.

[4] = Rat oral pharmacokinetics (plasma); format: in vivo
Protocol: Plasma (EDTA K2 anticoagulant) was collected from male, cannulated, CD Sprague Dawley rats to determine the pharmacokinetics of formulations containing compound inhibitors of Rho kinase. Each animal was dosed orally with a 4 ml/kg solution or suspension of each test compound in 10 mM acetate buffered saline, pH 4.5 at a final concentration range of 20-30 μmol/kg. Blood was collected at 0.25, 0.5, 1, 2, 4, 6, 8, and 24 hours. Plasma samples were assayed for the concentration of the test compound using an on-line, solid phase extraction LC/MS/MS analysis system.
Samples were analyzed on a QSTAR Elite, hybrid quadrupole time-of-flight mass spectrometer (Applied Biosystems, Framingham, Mass.) coupled with a Symbiosis Pharma integrated, on-line SPE-HPLC system (Spark Holland Inc., Plainsboro, N.J.). Analyst QS 2.0 software was used for instrument control, data acquisition and processing. […] Mobile Phase A consisted of 0.1% ammonium hydroxide in water and Mobile Phase B consisted of 0.1% formic acid in acetonitrile. Pharmacokinetic analyses were performed using WinNonlin software version 5.2 (Pharsight Corporation, Mountain View, Calif.).
As determined from the plasma concentration versus time curves, the time to peak and peak exposure are represented by the values Tmax and Cmax, respectively. The AUC values (nM*hr) shown were calculated as the areas under the plasma concentration versus time curves from time zero through the time of the last observable value and represent the total exposure of the compound over the course of the study. Half-life values or the amount of time required for the plasma levels of the compound to decline to half the initial value are represented as t1/2.

murine eosinophils = test: Eotaxin-induced murine eosinophil chemotaxis; format: cell-based, mouse; conditions: 10 nM eotaxin challenge; FIG. 1
Protocol: Bronchoalveolar lavage was collected from ovalbumin sensitized and challenged mice in a volume of 2.5 mL lavage buffer. The lavage buffer was 0.9% saline with 10% fetal bovine serum. The pooled lavages were maintained on ice until use. The murine eosinophils were isolated using MACS cell separation (Miltenyi Biotech) by depletion of B cells and T cells by positive selection following incubation with antibody conjugated magnetic beads specific for CD45-R (B220) and CD90 (Thy 1.2), which bind B cells and T cells, respectively.
Eosinophil chemotaxis was assessed using a modified Boyden Chamber (Neuroprobe, 96-well) with a 5 μm pore membrane. The ability of the tested compounds to block chemotaxis induced by a 10 nM eotaxin challenge (mouse) or 1 nM eotaxin challenge (human) during one hour incubation at 37° C. with 5% CO2 was assessed. Chemotaxis was quantified via microscopy by counting the number of migrated cells in at least 3 view fields per treatment.

human eosinophils = test: Eotaxin-induced human eosinophil chemotaxis; format: cell-based; conditions: 1 nM eotaxin challenge; FIG. 2
Excerpt: Peripheral blood from healthy human volunteers was collected and the PMNs separated via Ficoll-paque density centrifugation followed by hypotonic lysis of the red blood cells. Subsequently, the human eosinophils were isolated from the cell suspension via StemCell Technologies Human Eosinophil Enrichment kit (Cat. No 19256) according to the manufacturer's recommendations. Briefly, unwanted cells were specifically labeled with dextran-coated magnetic nanoparticles using bispecific Tetrameric Antibody Complexes (TAC) directed against cell surface antigens on human blood cells: […] The unwanted cells are then separated from the unlabelled eosinophils using the EasySep® magnetic isolation procedure.

[5] = system: ova-sensitized, ova-challenged mice; test: Prevention of airway hyperreactivity development, anti-inflammatory dosing paradigm (Penh); format: in vivo, mouse
ERK1 = target: T1, ERK1 (Homo sapiens, UniProt P27361); test: Kinase panel screen (KinaseProfiler), ERK1; format: biochemical; conditions: 10 μM ATP
T1 construct: purchased Upstate, Millipore Bioscience Division (KinaseProfiler service)
Protocol: (§1) Compounds of Formulae I and II were examined for activity against a selected panel of kinases using the KinaseProfiler™ enzyme profiling services (Upstate, Millipore Bioscience Division). Percent kinase activity at 10 μM and 1 μM test compound and 10 μM ATP was determined against 40 wild-type recombinant human kinases according to Upstate's standard protocol: ASK1, BTK, CSK, c-RAF, GCK, GSK3β, IKKα, IKKβ, IRAK1, IRAK4, JNK1α1, JNK2α2, JNK3, ERK1, ERK2, MAPKAP-K2, MAPKAP-K3, MEK1, MKK4, MKK6, MKK7β, Mnk2, MSK1, PAK3, PDK1, PRAK, ROCK1, Rsk2, SAPK2a, SAPK2b, SAPK3, SAPK4, SRPK1, SRPK2, Syk, TAK1, TBK1, PI3-Kβ, PI3-Kγ, PI3-Kδ.

ERK2 = target: T2, ERK2 (Homo sapiens, UniProt P28482); test: Kinase panel screen (KinaseProfiler), ERK2; format: biochemical; conditions: 10 μM ATP
T2 construct: purchased Upstate, Millipore Bioscience Division (KinaseProfiler service)
Protocol: as §1

[6] = rat, oral, 20-30 μmol/kg, plasma, mean of n = 3

T2 sequence (P28482 whole entry): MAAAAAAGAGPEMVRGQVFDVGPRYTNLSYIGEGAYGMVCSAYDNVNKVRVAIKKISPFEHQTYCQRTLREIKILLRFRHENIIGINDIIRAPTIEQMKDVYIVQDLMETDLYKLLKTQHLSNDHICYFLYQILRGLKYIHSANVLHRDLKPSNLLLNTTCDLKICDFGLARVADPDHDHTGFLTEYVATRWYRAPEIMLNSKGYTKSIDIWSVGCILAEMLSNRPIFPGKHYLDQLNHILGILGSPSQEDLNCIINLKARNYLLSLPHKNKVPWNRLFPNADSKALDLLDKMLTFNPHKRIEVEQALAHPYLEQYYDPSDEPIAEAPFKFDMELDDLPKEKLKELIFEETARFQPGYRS
T1 sequence (P27361 whole entry): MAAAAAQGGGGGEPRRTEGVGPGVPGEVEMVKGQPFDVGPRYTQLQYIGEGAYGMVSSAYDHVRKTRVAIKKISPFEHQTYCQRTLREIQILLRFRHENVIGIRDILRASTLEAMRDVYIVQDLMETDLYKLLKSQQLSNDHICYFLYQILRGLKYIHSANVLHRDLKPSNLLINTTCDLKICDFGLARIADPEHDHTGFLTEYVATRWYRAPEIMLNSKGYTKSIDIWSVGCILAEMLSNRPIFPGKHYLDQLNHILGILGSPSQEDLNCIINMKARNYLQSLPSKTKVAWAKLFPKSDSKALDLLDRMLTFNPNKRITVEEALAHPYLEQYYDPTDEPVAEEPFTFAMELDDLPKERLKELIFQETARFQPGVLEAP

## CS(=O)(=O)Nc1cccc(CN2CCC[C@H](Nc3ccc4[nH]ncc4c3)C2)c1 [Compound 1.091, (S)-N-(3-((3-(1H-indazol-5-ylamino)piperidin-1-yl)methyl)phenyl)methanesulfonamide]
Rat trachea rings
  Percentage of carbachol-induced contraction at 1 μM compound, Avg %: 35.4%
  Percentage of carbachol-induced contraction at 10 μM compound, Avg %: 14.3%
  IC50: 103 nM
  Trachael Ring Contraction, %: 35%
[1]; 10 ng/ml IL-1β and 100 ng/ml TNF-α for 18 hours, 300 nM carbachol
  relaxation of tracheal rings, cytokine-pretreated tissues: fully efficacious
[1]; 300 nM carbachol
  relaxation of tracheal rings, vehicle-pretreated tissues: fully efficacious
[1]
  potency in cytokine-pretreated versus vehicle-pretreated tissues: slightly more potent in cytokine-pretreated tissues
[2]; 5 μmol/kg intratracheal
  log10AUC (penh): 1.8127
[2]; 15 μmol/kg intraperitoneal
  log10AUC (penh): 2.0096
[2]; 15 μmol/kg oral
  log10AUC (penh): 2.2309
[2]; i.p. route, compared to oral dosing
  reduction in airway hyperresponsiveness: enhanced reduction
[2]; intratracheal administration
  bronchodilatory response: robust bronchodilatory response
[2]; oral doses
  reduction in airway hyperresponsiveness: did not yield a significant reduction
[3]; dosed i.t. to day 30, anti-inflammatory dosing paradigm, FIG. 12
  eosinophils in BALF: reduction of eosinophils
LPS-challenged mice
  IL-1β levels in BALF: reduction
LPS-challenged mice; intratracheal dosing one hour prior to LPS challenge, FIG. 17
  LPS-induced pulmonary neutrophilia influx: significant reduction; also recorded: dose-dependent inhibition
[4]; oral dosing
  oral bioavailability: poor oral bioavailability
[4]; [6]
  AUC (0-last): BLQ
  Cmax: BLQ
  Tmax: BLQ
  Vz_F: BLQ
  t½: BLQ

## CS(=O)(=O)Nc1cccc(CN2CC[C@@H](Nc3cccc4cnccc34)C2)c1 [Compound 2.038, (R)-N-(3-((3-(isoquinolin-5-ylamino)pyrrolidin-1-yl)methyl)phenyl)methanesulfonamide]
Murine eosinophils
  chemotactic response of murine eosinophils: inhibited
Human eosinophils
  chemotactic response of human eosinophils: inhibited
Rat trachea rings
  Percentage of carbachol-induced contraction at 1 μM compound, Avg %: 57.2%
  Percentage of carbachol-induced contraction at 10 μM compound, Avg %: 10.2%
  IC50: 272 nM
  Trachael Ring Contraction, %: 57%
[2]; 15 μmol/kg oral
  log10AUC (penh): 2.0813
[2]; oral doses
  reduction in airway hyperresponsiveness: statistically significant reduction
[3]; 15 μmol/kg/oral on days 27 to 31, FIG. 13
  concentration of IL-5 in BALF: reduced levels
[3]; 15 μmol/kg/oral on days 27 to 31, FIG. 14
  concentration of Eotaxin in BALF: reduced levels
[3]; 15 μmol/kg/oral on days 27 to 31, FIG. 15
  concentration of IL-13 in BALF: reduced levels
[3]; dosed orally to day 31, anti-inflammatory dosing paradigm, FIG. 11
  eosinophils per ml of BALF (airway eosinophil infiltration): reduced
[5]; oral 15 μMol/kg once a day during days 27 to 31, methacholine on Day 32
  airway hyperreactivity to methacholine: prevention of airway hyperreactivity
[4]; oral dosing, refers to Table 13 and Table 15
  plasma and lung tissue concentrations after oral dosing: high plasma and lung tissue concentrations

## NC(=O)Cn1ccc2cc(CN3CC[C@@H](Nc4cccc5cnccc45)C3)ccc21 [Compound 2.059, (R)-2-(5-((3-(isoquinolin-5-ylamino)pyrrolidin-1-yl)methyl)-1H-indol-1-yl)acetamide]
[5]; intratracheal once a day, days 27 to 30 (1.091) or 27 to 31
  airway hyperreactivity: prevention of airway hyperreactivity
LPS-challenged mice
  IL-1β levels in BALF: reduction
ERK1; 1 μM test compound
  Percent inhibition, ERK1: 37%
ERK1; 10 μM test compound
  Percent inhibition, ERK1: 4%
ERK2; 1 μM test compound
  Percent inhibition, ERK2: 56%
ERK2; 10 μM test compound
  Percent inhibition, ERK2: 12%
